pIC50: −log10 of the molar value. Like-named read-outs stand apart in the source and are kept apart here. Bridge positions count the residues as written; N and C are the ends. Peptide text beside a SMILES is read from it.

Assay [1] concerns Saccharomyces cerevisiae. Briefly: Growth inhibition by hairpin peptide alone, Saccharomyces cerevisiae. The settings on record: hairpin peptide on its own. It is filed as cell-based. The source says:
Some α-hairpinin and β-hairpin peptides show efficacy on their own against pathogens at a concentration higher than the concentration used in a combination with a plant defensin.

For assay [2], the system named is Fusarium graminearum.
Assay [3] has as its system Candida albicans.
Assay [4] deals with Colletotrichum graminicola.
Assay [5] concerns Fusarium graminearum (Fgr). It is filed as cell-based. On the set-up: relative uptake of SYTOX green: reference not given here.
In assay [6] the test system is Fusarium oxysporum f. sp. vasinfectum (Fov). It is filed as cell-based. Also noted: relative uptake of SYTOX green: reference not given here.

Regarding `CSCC[C@@H]1NC(=O)[C@H](CC(C)C)NC(=O)[C@@H]2CSSC[C@H](NC(=O)[C@H](CCCNC(=N)N)NC(=O)[C@H](CCC(=O)O)NC(=O)[C@H](CCCNC(=N)N)NC(=O)[C@@H](NC(=O)[C@H](CCCCN)NC(=O)[C@H](CCCNC(=N)N)NC(=O)[C@H](CCCNC(=N)N)NC(=O)CNC(=O)[C@H](CCC(=O)O)NC(=O)CN)CSSC[C@@H](C(=O)N[C@@H](CCCCN)C(=O)N[C@@H](CO)C(=O)N[C@@H](CCCNC(=N)N)C(=O)N[C@@H](CCC(=O)O)C(=O)N[C@@H](CCC(N)=O)C(=O)N[C@@H](CCC(=O)O)C(=O)O)NC(=O)[C@H](CC(=O)O)NC1=O)C(=O)N[C@@H](CCC(=O)O)C(=O)N[C@@H](CCCNC(=N)N)C(=O)N[C@@H](Cc1c[nH]cn1)C(=O)N[C@@H](Cc1c[nH]cn1)C(=O)N[C@@H](CCCNC(=N)N)C(=O)NCC(=O)NCC(=O)N[C@@H](CC(=O)O)C(=O)N[C@@H](Cc1c[nH]c3ccccc13)C(=O)N[C@@H](Cc1c[nH]c3ccccc13)C(=O)N[C@@H](CCC(=O)O)C(=O)N[C@@H](CCCCN)C(=O)N[C@@H](CCC(N)=O)C(=O)N[C@@H](CCCNC(=N)N)C(=O)N2` [Sbi_HPN_104C] (H-GEGRRKCRERCERHHRGGDWWEKQRCLMDCKSREQE-OH; disulfide 7-30, 11-26 (inferred); N-terminus and C-terminus assumed), the negative logarithm of the IC50 (pIC50) (commonly the IC50 on a negative log10 scale, so that one unit is a factor of ten) in assay [1] is less than 4.70; in assay [2], 5.15; in assay [3], 5.15; in assay [4] it was 4.80.

Regarding Hordothionin [reference compound], in assay [5], the Permeability index was 0.4 and the “relative uptake of SYTOX green” value is on record as 120.

As for “HXL013: Class I permeabilizing defensin, mature protein SEQ ID NO:30 (KDCLTRRHGFQGRCLFDRQCAHVCRSDGFIGGQCRGPLRKCFCSRPC; HXL013 Glycine max)”, in assay [5], the Permeability index stood at 1.4 and the “relative uptake of SYTOX green” value came to 450.

As to “HXL001: Class I permeabilizing defensin, mature protein SEQ ID NO:25 (RHCLSQSHRFKGLCMSSNNCANVCQTENFPGGECKAEGATRKCFCKKIC; HXL001 Zea Mays)”, in assay [5], the Permeability index was determined as 0.9 and the “relative uptake of SYTOX green” value amounted to 300.

With “HXL002: permeabilizing defensin, mature protein SEQ ID NO:26 (RDCLSQSHKFKGACLSSSNCAAVCRTENFPDGECHTHNFARKCFCKRAC; HXL002 Triticum aestivum)”, in assay [5], the Permeability index is 1.0 and the “relative uptake of SYTOX green” value came out at 320. In assay [6], the Permeability index is 0.9 and the “relative uptake of SYTOX green” value amounted to 260.

As to `C[C@@H](O)[C@@H]1NC(=O)[C@H](CCC(N)=O)NC(=O)[C@@H]2CSSC[C@H](NC(=O)[C@H](CCC(N)=O)NC(=O)[C@H](CCCNC(=N)N)NC(=O)[C@H](CCC(N)=O)NC(=O)[C@H](CCCNC(=N)N)NC(=O)[C@H](CCC(=O)O)NC(=O)[C@@H]3CCCN3C(=O)[C@H](CO)NC(=O)[C@H](CCC(N)=O)NC(=O)[C@H](CCC(=O)O)NC(=O)[C@H](CCC(N)=O)NC1=O)C(=O)N[C@@H](CCC(N)=O)C(=O)N[C@@H](CCC(N)=O)C(=O)N[C@@H](CCCNC(=N)N)C(=O)N[C@H](C(=O)N[C@@H](CCC(=O)O)C(=O)N[C@@H](CCCNC(=N)N)C(=O)N[C@@H](CCC(N)=O)C(=O)N[C@@H](Cc1ccc(O)cc1)C(=O)N[C@@H](CCCCN)C(=O)N[C@@H](CCC(=O)O)C(=O)O)CSSC[C@H](NC(=O)[C@H](CCCNC(=N)N)NC(=O)[C@H](Cc1c[nH]cn1)NC(=O)[C@H](Cc1ccc(O)cc1)NC(=O)[C@H](CCC(N)=O)NC(=O)[C@H](CCC(N)=O)NC(=O)[C@H](CCC(N)=O)NC(=O)[C@@H]1CCCN1C(=O)[C@@H](N)CC(=O)O)C(=O)N[C@@H](CCC(N)=O)C(=O)N[C@@H](CCCNC(=N)N)C(=O)N[C@@H](CCCNC(=N)N)C(=O)N2` [Cil_HPN_14F] (H-DPQQQYHRCQRRCQTQEQSPERQRQCQQRCERQYKE-OH; disulfide 9-30, 13-26 (inferred); N-terminus and C-terminus assumed), the pIC50 in assay [1] is 4.92.

For the molecule “HXL004: Class I permeabilizing defensin, mature protein SEQ ID NO:27 (RTCESQSHRFKGLCFSRSNCASVCHTEGFNGGHCRGFRRRCFCTRHC; HXL004 Nicotiana benthamiana)”, in assay [5], the Permeability index came to 1.6 and the “relative uptake of SYTOX green” value amounted to 500.

Regarding “HXL007: permeabilizing defensin, mature protein SEQ ID NO:28 (RTCESLADTYRGPCFTDGSCDDHCKNKEHLISGRCRNDFRCWCTRNC; HXL007 Cyamopsis tetragonoloba)”, in assay [6], the Permeability index amounted to 1.2 and the “relative uptake of SYTOX green” value was 350.

Take `CSCC[C@@H]1NC(=O)[C@@H]2CSSC[C@H](NC(=O)[C@H](CCC(=O)O)NC(=O)[C@H](CCCNC(=N)N)NC(=O)[C@H](CCCNC(=N)N)NC(=O)[C@@H](NC(=O)[C@H](CCC(=O)O)NC(=O)[C@H](CCCCN)NC(=O)CNC(=O)CNC(=O)CNC(=O)CNC(=O)[C@@H](N)Cc3c[nH]cn3)CSSC[C@@H](C(=O)N[C@@H](CCC(=O)O)C(=O)N[C@@H](Cc3c[nH]c4ccccc34)C(=O)N[C@@H](CCCNC(=N)N)C(=O)N[C@@H](CCCNC(=N)N)C(=O)N[C@@H](Cc3c[nH]cn3)C(=O)N[C@@H](CCC(=O)O)C(=O)O)NC(=O)[C@H](CCC(N)=O)NC(=O)[C@H](CCCNC(=N)N)NC1=O)C(=O)N[C@@H](CCCNC(=N)N)C(=O)NCC(=O)N[C@@H](Cc1ccc(O)cc1)C(=O)N[C@@H](CCCNC(=N)N)C(=O)N[C@@H](CC(=O)O)C(=O)N[C@@H](CCC(=O)O)C(=O)N1CCC[C@H]1C(=O)N[C@@H](Cc1c[nH]c3ccccc13)C(=O)N[C@@H](CCCNC(=N)N)C(=O)N[C@@H](CCCCN)C(=O)N[C@@H](CCC(N)=O)C(=O)N[C@@H](CCC(=O)O)C(=O)N2` [Osa_HPN_86B] (H-HGGGGKECRRECRGYRDEPWRKQECMRQCEWRRHE-OH; disulfide 8-29, 12-25 (inferred); N-terminus and C-terminus assumed): the pIC50 in assay [1] was 5.10; in assay [2], 4.74; in assay [3], 5.05; in assay [4] it was 4.89.

Regarding “EcAMP1: α-hairpinin peptide, SEQ ID NO:36, produced recombinantly in E. coli (GSGRGSCRSQCMRRHEDEPWRVQECVSQCRRRRGGGD; EcAMP1 Echinochloa crus-galli)”, the pIC50 in assay [1] was 5.10; in assay [2] (read-out: IC50 Fgr) it was 5.15; in assay [3] (read-out: IC50 C. alb), 5.10; in assay [4] (read-out: IC50 Cgr), 4.70.

For “HXL008: Class I permeabilizing defensin, mature protein SEQ ID NO:29 (KVCTKPSKFFKGLCGTDGACTTACRKEGLHSGYCQLKGFLNSVCVCRKHC; HXL008 Picramnia pentandra)”, in assay [5], the Permeability index was determined as 0.9 and the “relative uptake of SYTOX green” value is on record as 300. In assay [6], the Permeability index is recorded as 0.8 and the “relative uptake of SYTOX green” value came to 225.

On to “HXP4: synthetic (artificial) defensin variant, SEQ ID NO:8 (RECKTESHRFKGPCITKPPCRKACISEKFTDGHCSKILRRCLCTKPC; HXP4 protein)”, for which, in assay [5], the Permeability index is given as 1.3 and the “relative uptake of SYTOX green” value was 400. In assay [6], the Permeability index is 0.7 and the “relative uptake of SYTOX green” value was found to be 220.

`CC(C)[C@@H]1NC(=O)[C@@H]2CSSC[C@H](NC(=O)[C@H](CCC(N)=O)NC(=O)[C@H](CCCCN)NC(=O)[C@H](CCC(N)=O)NC(=O)[C@@H](NC(=O)[C@H](CCCNC(=N)N)NC(=O)[C@@H](N)CC(=O)O)CSSC[C@@H](C(=O)N[C@@H](CCCNC(=N)N)C(=O)N[C@@H](CCCNC(=N)N)C(=O)NCC(=O)N[C@@H](CCCNC(=N)N)C(=O)NCC(=O)N[C@@H](CO)C(=O)O)NC(=O)[C@H](CC(=O)O)NC(=O)[C@H](CCCNC(=N)N)NC1=O)C(=O)N[C@@H](CCC(N)=O)C(=O)N[C@@H](Cc1c[nH]cn1)C(=O)N[C@@H](Cc1ccc(O)cc1)C(=O)N[C@@H](CO)C(=O)N[C@@H](CC(=O)O)C(=O)N[C@@H](Cc1c[nH]c3ccccc13)C(=O)N[C@@H](CC(=O)O)C(=O)N[C@@H](CCCCN)C(=O)N[C@@H](CCCCN)C(=O)N[C@@H](CCC(N)=O)C(=O)N[C@@H](CCC(N)=O)C(=O)N2` [Sbi_HPN_104I] (H-DRCQKQCQHYSDWDKKQQCVRDCRRGRGS-OH; disulfide 3-23, 7-19 (inferred); N-terminus and C-terminus assumed): the pIC50 in assay [1] is less than 4.70.

“RsAFP2: defensin compared in the Fgr permeabilization assay (QKLCQRPSGTWSGVCGNNNACKNQCIRLEKARHGSCNYVFPAHKCICYFPC; UniProt P30230 30-80, looked up) [reference compound]”: in assay [5], the Permeability index is recorded as 0.3 and the “relative uptake of SYTOX green” value was determined as 100.

Take “NaD1: Class II Solanaceous defensin from flowers of ornamental tobacco Nicotiana alata (Q8GTM0) (RECKTESNTFPGICITKPPCRKACISEKFTDGHCSKILRRCLCTKPC; UniProt Q8GTM0 26-72, looked up)”: the Permeability index in assay [5] and in assay [6] was 1.0 throughout. Besides, the “relative uptake of SYTOX green” value in assay [5] was 320; in assay [6], 300.

For the origin of these results see US20190327965A1, “AGENTS AND METHODS FOR TREATMENT OF PATHOGENS” (Hexima Limited, priority 2014, published 2019).
